Measurements published in US7691901B2, “Carotenoid analogs or derivatives for the inhibition and amelioration of inflammation” (Cardax Pharmaceuticals Inc., priority 2004, dated 2010).

Assays:
o-tyrosine (oY/F) = assay: Thioglycollate/Zymosan-induced peritonitis model: molar ratios of o-tyrosine (oY/F); assay type: in vivo, mice
Protocol: (§1) Thioglycollate/Zymosan—Induced Peritonitis Model: Wild-type mice were administered either 500 mg/kg body weight of disodium disuccinate astaxanthin (ddAst/Cardax™) in an oil emulsion vehicle, or normal saline (NS) as a negative control, by oral gavage at 24 hours intervals beginning 7 days prior to the induction of peritonitis. Peritonitis was induced experimentally as follows: mice were injected intraperitoneally with 1 ml of 4% by weight thioglycollate (Tg) broth, to induce the recruitment of proinflammatory cells to the peritoneum. Either 16 hours or 72 hours after recruitment, approximately half of the mice were injected intraperitoneally with 250 mg/kg body weight of zymosan (Z) for a further 4 hours. The mice not receiving zymosan underwent no further treatment. Peritoneal lavage was performed in control animals or animals treated with (ddAst) 16 hours post Tg injection, or 20 h following the combination of both Tg injection (16 hours) followed by Z injection (4 hours), as indicated (Tg/Z). Peritoneal lavages were performed with phosphate-buffered saline containing antioxidant (0.1 mM butylated hydroxytoluene (BHT)) and 2 mM of the metal chelator diethylenetriamine pentaacetic acid (DTPA) according to established practices in the art. The lavage suspensions were transferred to screw-capped tubes under an argon atmosphere, and immediately centrifuged at 1000 rpm in a table top microcentrifuge for 10 min at 4° C. to remove whole cells and debris. All analyses of lipid peroxidation products was performed on cell-free lavage supernatants. Cell pellets were resuspended in phosphate-buffered saline containing 0.1 mM BHT and 0.1 mM DTPA, and differential cell counts (macrophages, monocytes, eosinophils, lymphocytes, neutrophils, and erythrocytes) were performed on cytospun preparations of isolated cells according to established procedures in the art.
Electrospray ionization tandem mass spectrometry was used to simultaneously quantify individual molecular species of HETEs, HPETEs, the prostaglandin PGF2α, F2-isoprostanoids, hydroxy- and hydroperoxy-octadecadienoic acids (H(P)ODEs), and their precursors, arachidonic acid (AA) and linoleic acid (LA). Additionally, the molar ratios of o-tyrosine (oY/F). were measured.

[1] = Single- and multiple-dose pharmacokinetics of an oral preparation in a murine model; assay type: in vivo; conditions: oral preparation of the racemic compound in lipophilic emulsion
superoxide anion = assay: Direct superoxide anion scavenging by EPR spectroscopy (DEPMPO spin-trap) in PMA-stimulated isolated human neutrophils; assay type: cell-based; conditions: aqueous phase; statistical mixture of stereoisomers and individual stereoisomers
Protocol: Leukocyte Isolation and Preparation. Human polymorphonuclear leukocytes (PMNs) were isolated from freshly sampled venous blood of a single volunteer by Percoll density gradient centrifugation as described previously. Briefly, each 10 mL of whole blood was mixed with 0.8 mL of 0.1 M EDTA and 25 mL of saline. The diluted blood was then layered over 9 mL of Percoll at a specific density of 1.080 g/mL. After centrifugation at 400×g for 20 min at 20° C., the plasma, mononuclear cell, and Percoll layers were removed. Erythrocytes were subsequently lysed by addition of 18 mL of ice-cold water for 30 s, followed by 2 mL of 10× PIPES buffer (25 mM PIPES, 110 mM NaCl, and 5 mM KCl, titrated to pH 7.4 with NaOH). Cells were then pelleted at 4° C., the supernatant was decanted, and the procedure was repeated. After the second hypotonic cell lysis, cells were washed twice with PAG buffer [PIPES buffer containing 0.003% human serum albumin (HSA) and 0.1% glucose]. Afterward, PMNs were counted by light microscopy on a hemocytometer. The isolation yielded PMNs with a purity of >95%. The final pellet was then suspended in PAG-CM buffer (PAG buffer with 1 mM CaCl2 and 1 mM MgCl2). EPR Measurements. All EPR measurements were performed using a Bruker ER 300 EPR spectrometer operating at X-band with a TM110 cavity as previously described. The microwave frequency was measured with a Model 575 microwave counter (EIP Microwave, Inc., San Jose, Calif.). To measure superoxide anion (O2) generation from phorbol-ester (PMA)-stimulated PMNs, EPR spin-trapping studies were performed using the spin trap DEPMPO (Oxis, Portland, Oreg.) at 10 mM. 1×10^6 PMNs were stimulated with PMA (1 ng/mL) and loaded into capillary tubes for EPR measurements. To determine the radical scavenging ability of 3 and 9 in aqueous and ethanolic formulations, PMNs were pre-incubated for 5 minutes with test compound, followed by PMA stimulation.
Instrument settings used in the spin-trapping experiments were as follows: modulation amplitude, 0.32 G; time constant, 0.16 s; scan time, 60 s; modulation frequency, 100 kHz; microwave power, 20 milliwatts; and microwave frequency, 9.76 GHz. The samples were placed in a quartz EPR flat cell, and spectra were recorded. The component signals in the spectra were identified and quantified as reported previously.

[2] = test system: ischemia-reperfusion injury; assay: Ischemia-reperfusion injury, experimental infarction model; assay type: in vivo, rodents; conditions: intravenous pretreatment
[3] = test system: differential cell counts (macrophages, monocytes, eosinophils, lymphocytes, neutrophils, and erythrocytes); assay: Thioglycollate/Zymosan-induced peritonitis model: differential cell counts of peritoneal lavage cells; assay type: in vivo, mice; design: RBC, MEAN / RBC, MEDIAN / WBC, MEAN / WBC, MEDIAN: unit not given here
Protocol: as §1

[4] = 16 Hour Thioglycollate/4 Hour Zymosan
[5] = 72 Hour Thioglycollate/4 Hour Zymosan

Structure (SMILES): CC1=C(/C=C/C(C)=C/C=C/C(C)=C/C=C/C=C(C)/C=C/C=C(C)/C=C/C2=C(C)C(=O)C(OC(=O)CCC(=O)O)CC2(C)C)C(C)(C)CC(OC(=O)CCC(=O)O)C1=O (stereo not shown) [Cardax, disodium disuccinate astaxanthin]
- oY/F (mmol/mol), MEAN (o-tyrosine (oY/F); [4]): 0.145 mmol/mol
- oY/F (mmol/mol), MEDIAN (o-tyrosine (oY/F); [4]): 0.117 mmol/mol
- oY/F (mmol/mol), MEAN (o-tyrosine (oY/F); 16 Hour Thioglycollate): 0.678 mmol/mol
- oY/F (mmol/mol), MEDIAN (o-tyrosine (oY/F); 16 Hour Thioglycollate): 0.521 mmol/mol
- oY/F (mmol/mol), MEAN (o-tyrosine (oY/F); [5]): 0.249 mmol/mol
- oY/F (mmol/mol), MEDIAN (o-tyrosine (oY/F); [5]): 0.118 mmol/mol
- oY/F (mmol/mol), MEAN (o-tyrosine (oY/F); 72 Hour Thioglycollate): 0.257 mmol/mol
- oY/F (mmol/mol), MEDIAN (o-tyrosine (oY/F); 72 Hour Thioglycollate): 0.198 mmol/mol
- oY/F compared to NS (o-tyrosine (oY/F); 16 hours Tg/4 hour Z, 500 mg/kg oral gavage): significant decrease
- oY/F (mmol/mol), MEAN (o-tyrosine (oY/F); Baseline): 0.595 mmol/mol
- oY/F (mmol/mol), MEDIAN (o-tyrosine (oY/F); Baseline): 0.565 mmol/mol
- plasma and tissue levels of nonesterified astaxanthin [1]: significant plasma and tissue levels of nonesterified astaxanthin were achieved
- direct scavenging of superoxide anion (superoxide anion): potent direct scavengers of superoxide anion in the aqueous phase
- cardioprotection [2]: significantly cardioprotective
- myocardial salvage ([2]; highest dose tested): up to 56%
- ALV MAC %, MEAN ([3]; 16 Hour Thioglycollate): 3.000%
- EOSIN %, MEAN ([3]; 16 Hour Thioglycollate): 6.000%
- LYMPHS %, MEAN ([3]; 16 Hour Thioglycollate): 23.000%
- MONOS %, MEAN ([3]; 16 Hour Thioglycollate): 39.667%
- NEUTRO %, MEAN ([3]; 16 Hour Thioglycollate): 25.333%
- OTHER %, MEAN ([3]; 16 Hour Thioglycollate): 2.667%
- RBC, MEAN ([3]; 16 Hour Thioglycollate): 449.33
- REACTIVE %, MEAN ([3]; 16 Hour Thioglycollate): 0.333%
- RES EP %, MEAN ([3]; 16 Hour Thioglycollate): 0.000%
- WBC, MEAN ([3]; 16 Hour Thioglycollate): 528.67
- ALV MAC %, MEDIAN ([3]; 16 Hour Thioglycollate): 3.000%
- EOSIN %, MEDIAN ([3]; 16 Hour Thioglycollate): 4.000%
- LYMPHS %, MEDIAN ([3]; 16 Hour Thioglycollate): 19.000%
- MONOS %, MEDIAN ([3]; 16 Hour Thioglycollate): 35.000%
- NEUTRO %, MEDIAN ([3]; 16 Hour Thioglycollate): 21.000%
- OTHER %, MEDIAN ([3]; 16 Hour Thioglycollate): 2.000%
- RBC, MEDIAN ([3]; 16 Hour Thioglycollate): 350.00
- REACTIVE %, MEDIAN ([3]; 16 Hour Thioglycollate): 0.000%
- RES EP %, MEDIAN ([3]; 16 Hour Thioglycollate): 0.000%
- WBC, MEDIAN ([3]; 16 Hour Thioglycollate): 475.00
- ALV MAC %, MEAN ([3]; 72 Hour Thioglycollate): 15.667%
- EOSIN %, MEAN ([3]; 72 Hour Thioglycollate): 1.667%
- LYMPHS %, MEAN ([3]; 72 Hour Thioglycollate): 53.000%
- MONOS %, MEAN ([3]; 72 Hour Thioglycollate): 27.000%
- NEUTRO %, MEAN ([3]; 72 Hour Thioglycollate): 0.000%
- OTHER %, MEAN ([3]; 72 Hour Thioglycollate): 2.333%
- RBC, MEAN ([3]; 72 Hour Thioglycollate): 90.333
- REACTIVE %, MEAN ([3]; 72 Hour Thioglycollate): 0.333%
- RES EP %, MEAN ([3]; 72 Hour Thioglycollate): 0.000%
- WBC, MEAN ([3]; 72 Hour Thioglycollate): 435.33
- ALV MAC %, MEDIAN ([3]; 72 Hour Thioglycollate): 15.000%
- EOSIN %, MEDIAN ([3]; 72 Hour Thioglycollate): 1.000%
- LYMPHS %, MEDIAN ([3]; 72 Hour Thioglycollate): 55.000%
- MONOS %, MEDIAN ([3]; 72 Hour Thioglycollate): 32.000%
- NEUTRO %, MEDIAN ([3]; 72 Hour Thioglycollate): 0.000%
- OTHER %, MEDIAN ([3]; 72 Hour Thioglycollate): 2.000%
- RBC, MEDIAN ([3]; 72 Hour Thioglycollate): 69.000
- REACTIVE %, MEDIAN ([3]; 72 Hour Thioglycollate): 0.000%
- RES EP %, MEDIAN ([3]; 72 Hour Thioglycollate): 0.000%
- WBC, MEDIAN ([3]; 72 Hour Thioglycollate): 448.00
